Experimental findings from patent US7459414B2, “Herbicides” (Syngenta Crop Protection, Inc., priority 2002, dated 2008) are described below.

Each structure is given as a SMILES string.

Holding throughout (format): in vivo
In assay [1] the test system is Avena (Ave). Put plainly: Example B1 pre-emergence herbicidal action (comparison test). Also noted: key: 1=total damage; 9=no action. The following applies: 500 g of active ingredient/ha; 3 weeks after application; scale of nine ratings, 1 to 4 = good to very good action. The protocol: (§1) Monocotyledonous and dicotyledonous weeds are sown in plastics pots in standard soil. Immediately after sowing, the test substances are applied in the form of an aqueous suspension (prepared from a 25% wettable powder (Example F3, b)) or in the form of an emulsion (prepared from a 25% emulsifiable concentrate (Example F1, c)) (500 liters of water/ha). The rate of application is 500 g of active substance/ha. The test plants are then grown in the greenhouse under optimum conditions. The evaluation is carried out 3 weeks after application, using a scale of nine ratings (1=total damage, 9=no action). Ratings of from 1 to 4 (especially from 1 to 3) indicate good to very good herbicidal action. Test plants: Alopecurus (Alo), Avena (Ave), Lolium (Lol), Setaria (Set), Panicum (Pan), Sorghum (Sor), Digitaria (Dig), Echinochloa (Ech) and Brachiaria (Bra).

For assay [2], the system named is Alopecurus (Alo). The assay is described as above. Also on record: key: 1=total damage; 9=no action. The following applies: 500 g of active ingredient/ha; 3 weeks after application; scale of nine ratings, 1 to 4 = good to very good action. As for the experimental part: as §1
In assay [3] the test system is Lolium (Lol). The assay is described as above. Also on record: key: 1=total damage; 9=no action. Particulars: 500 g of active ingredient/ha; 3 weeks after application; scale of nine ratings, 1 to 4 = good to very good action. As for the experimental part:
as §1

Assay [4] has as its system Panicum (Pan). Described as above. Also noted: key: 1=total damage; 9=no action. The following applies: 500 g of active ingredient/ha; 3 weeks after application; scale of nine ratings, 1 to 4 = good to very good action. As for the experimental part: as §1
Assay [5] relates to Sorghum (Sor). Described as above. Also noted: key: 1=total damage; 9=no action. Particulars: 500 g of active ingredient/ha; 3 weeks after application; scale of nine ratings, 1 to 4 = good to very good action. The protocol:
as §1

The subject of a further assay is Echinochloa (Ech). The description is as above. Also on record: key: 1=total damage; 9=no action. The following applies: 500 g of active ingredient/ha; 3 weeks after application; scale of nine ratings, 1 to 4 = good to very good action. The protocol:
as §1

The test system of assay [6] is Brachiaria (Bra). The assay is described as above. Also noted: key: 1=total damage; 9=no action. Particulars: 500 g of active ingredient/ha; 3 weeks after application; scale of nine ratings, 1 to 4 = good to very good action. The protocol: as §1
The subject of assay [7] is Setaria (Set). The description is as above. Also on record: key: 1=total damage; 9=no action. Particulars: 500 g of active ingredient/ha; 3 weeks after application; scale of nine ratings, 1 to 4 = good to very good action. As for the experimental part:
as §1

Assay [8] concerns Digitaria (Dig). The experiment in a line: Example B2 post-emergence herbicidal action (comparison test). Particulars: 250 g of active ingredient/ha; 3- to 6-leaf stage; 3 weeks after application; scale of nine ratings, 1 to 4 = good to very good action. The protocol: (§2) Monocotyledonous and dicotyledonous weeds are grown in standard soil in plastics pots under greenhouse conditions. The test substances are applied to the test plants at the 3- to 6-leaf stage. […] suspension (prepared from a 25% wettable powder (Example F3, b)) or in the form of an emulsion (prepared from a 25% emulsifiable concentrate (Example F1, c)) (500 liters of water/ha). The evaluation is carried out 3 weeks after application, using a scale of nine ratings (1=total damage, 9=no action). Ratings of from 1 to 4 (especially from 1 to 3) indicate good to very good herbicidal action. Test plants: Alopecurus (Alo), Avena (Ave), Lolium (Lol), Setaria (Set), Panicum (Pan), Sorghum (Sor), Digitaria (Dig), Echinocloa (Ech) and Brachiaria (Bra).

Assay [9] concerns Avena (Ave). The assay is described as above. Also on record: key: 1=total damage; 9=no action. The following applies: 250 g of active ingredient/ha; 3- to 6-leaf stage; 3 weeks after application; scale of nine ratings, 1 to 4 = good to very good action. The protocol:
as §2

The test system of assay [10] is Alopecurus (Alo). Described as above. Also on record: key: 1=total damage; 9=no action. The following applies: 250 g of active ingredient/ha; 3- to 6-leaf stage; 3 weeks after application; scale of nine ratings, 1 to 4 = good to very good action. The protocol:
as §2

Assay [11] deals with Lolium (Lol). The description is as above. The following applies: 250 g of active ingredient/ha; 3- to 6-leaf stage; 3 weeks after application; scale of nine ratings, 1 to 4 = good to very good action. Also on record: key: 1=total damage; 9=no action. The protocol: as §2
The test system of assay [12] is Panicum (Pan). The description is as above. Also noted: key: 1=total damage; 9=no action. The following applies: 250 g of active ingredient/ha; 3- to 6-leaf stage; 3 weeks after application; scale of nine ratings, 1 to 4 = good to very good action. The protocol: as §2
Assay [13] concerns Sorghum (Sor). The assay is described as above. Also noted: key: 1=total damage; 9=no action. The following applies: 250 g of active ingredient/ha; 3- to 6-leaf stage; 3 weeks after application; scale of nine ratings, 1 to 4 = good to very good action. The protocol:
as §2

The test system of assay [14] is Brachiaria (Bra). The assay is described as above. Also noted: key: 1=total damage; 9=no action. The following applies: 250 g of active ingredient/ha; 3- to 6-leaf stage; 3 weeks after application; scale of nine ratings, 1 to 4 = good to very good action. The protocol: as §2
The test system of the next assay is Echinocloa (Ech). The assay is described as above. Also noted: key: 1=total damage; 9=no action. Particulars: 250 g of active ingredient/ha; 3- to 6-leaf stage; 3 weeks after application; scale of nine ratings, 1 to 4 = good to very good action. As for the experimental part:
as §2

The subject of assay [15] is Setaria (Set). Described as above. The following applies: 250 g of active ingredient/ha; 3- to 6-leaf stage; 3 weeks after application; scale of nine ratings, 1 to 4 = good to very good action. Also on record: key: 1=total damage; 9=no action. As for the experimental part:
as §2

In assay [16] the test system is Avena (Ave). Put plainly: Example B4 post-emergence herbicidal action, MERGE oil additive 0.7% (Table B4). The following applies: 500 g of active substance per hectare; applied at 3- to 6-leaf stage; MERGE oil additive 0.7% by weight of the spray mixture; evaluation 3 weeks after application; scale of nine ratings. Also on record: key: 1=total damage; 9=no action. As for the experimental part:
(§3) Monocotyledonous and dicotyledonous weeds are grown in standard soil in plastics pots under greenhouse conditions. The test substances are applied to the test plants at the 3- to 6-leaf stage. The test substances are applied at a rate of application of 500 g of active substance per hectare in the form of an aqueous suspension (prepared from a 25% wettable powder (Example F3, b)) or in the form of an emulsion (prepared from a 25% emulsifiable concentrate (Example F1, c)) (500 liters of water/ha). The evaluation is carried out 3 weeks after application, using a scale of nine ratings (1=total damage, 9=no action). Ratings of from 1 to 4 (especially from 1 to 3) indicate good to very good herbicidal action. Herbicidal Action After the Emergence of the Plants (Post-emergence Action) of Compounds of the Present Invention (for Description See Example B2) Test plants: Avena (Ave), Lolium (Lol), Setaria (Set).

Assay [17] relates to Lolium (Lol). The assay is described as above. Also on record: key: 1=total damage; 9=no action. The following applies: 500 g of active substance per hectare; applied at 3- to 6-leaf stage; MERGE oil additive 0.7% by weight of the spray mixture; evaluation 3 weeks after application; scale of nine ratings. As for the experimental part: as §3
The subject of assay [18] is Setaria (Set). The assay is described as above. Also noted: key: 1=total damage; 9=no action. The following applies: 500 g of active substance per hectare; applied at 3- to 6-leaf stage; MERGE oil additive 0.7% by weight of the spray mixture; evaluation 3 weeks after application; scale of nine ratings. The protocol:
as §3

The test system of assay [19] is Avena (Ave). The experiment in a line: Example B3 pre-emergence herbicidal action, MERGE oil additive 0.7% (Table B3). Also noted: key: 1=total damage; 9=no action. The following applies: 500 g of active substance/ha; MERGE oil additive 0.7% by weight of the spray mixture; evaluation 3 weeks after application; scale of nine ratings. As for the experimental part: (§4) Monocotyledonous and dicotyledonous weeds are sown in standard soil in plastics pots. Immediately after sowing, the test substances are applied in the form of an aqueous suspension (prepared from a 25% wettable powder (Example F3, b)) or in the form of an emulsion (prepared from a 25% emulsifiable concentrate (Example F1, c)) (500 liters of water/ha). The rate of application is 500 g of active substance/ha. The test plants are then grown in the greenhouse under optimum conditions. The evaluation is carried out 3 weeks after application, sing a scale of nine ratings (1=total damage, 9=no action). Ratings of from 1 to 4 (especially from 1 to 3) indicate good to very good herbicidal action. Test plants: Avena (Ave), Lolium (Lol), Setaria (Set).

In assay [20] the test system is Lolium (Lol). The assay is described as above. The following applies: 500 g of active substance/ha; MERGE oil additive 0.7% by weight of the spray mixture; evaluation 3 weeks after application; scale of nine ratings. Also noted: key: 1=total damage; 9=no action. The protocol: as §4
In assay [21] the test system is Setaria (Set). The assay is described as above. Also on record: key: 1=total damage; 9=no action. Particulars: 500 g of active substance/ha; MERGE oil additive 0.7% by weight of the spray mixture; evaluation 3 weeks after application; scale of nine ratings. The protocol:
as §4

Assay [22] has as its system Digitaria (Dig). The experiment in a line: Example B1 pre-emergence herbicidal action (comparison test). Particulars: 500 g of active ingredient/ha; 3 weeks after application; scale of nine ratings, 1 to 4 = good to very good action. As for the experimental part: as §1

Turning to `CCc1cc(C)cc(CC)c1-c1c(OC(=O)C(C)(C)C)n2n(c1=O)CCCC2` [1.02], the “Pre-emergence action, rating, Ave” value in the assay on Avena (Ave) [1] and in the assay with Avena (Ave) [19] was 1 throughout. For the same compound, the “Pre-emergence action rating, Alo” value in the assay with Alopecurus (Alo) [2] was 1. The “Pre-emergence action, rating, Lol” value with Lolium (Lol) [3] and in the assay with Lolium (Lol) [20] was 1 each time. In addition, the “Pre-emergence action rating, Pan” value in the assay on Panicum (Pan) [4] is given as 1. The “Pre-emergence action rating, Sor” value in the assay on Sorghum (Sor) [5] is listed as 1. In the assay on Echinochloa (Ech), the “Pre-emergence action rating, Ech” value is listed as 1. For the same compound, the “Pre-emergence action rating, Bra” value with Brachiaria (Bra) [6] is 1. In addition, the “Pre-emergence action, rating, Set” value in the assay with Setaria (Set) [7] and with Setaria (Set) [21] was 1 each time. In addition, the “Post-emergence action rating, Dig” value in the assay with Digitaria (Dig) [8] worked out at 2. Further, the “Post-emergence action, rating, Ave” value in the assay on Avena (Ave) [9] and in the assay with Avena (Ave) [16] was 1 in each case. In the assay with Alopecurus (Alo) [10], the “Post-emergence action rating, Alo” value is 1. Further, the “Post-emergence action, rating, Lol” value in the assay with Lolium (Lol) [11] and in the assay with Lolium (Lol) [17] was 1 each time. The “Post-emergence action rating, Pan” value in the assay with Panicum (Pan) [12] is on record as 1. In addition, in the assay on Sorghum (Sor) [13], the “Post-emergence action rating, Sor” value came out at 1. For the same compound, the “Post-emergence action rating, Bra” value in the assay on Brachiaria (Bra) [14] came out at 1. Moreover, the “Post-emergence action rating, Ech” value with Echinocloa (Ech) worked out at 1. Further, the “Post-emergence action, rating, Set” value with Setaria (Set) [15] and in the assay on Setaria (Set) [18] was 1 each time. The “Pre-emergence action rating, Dig” value with Digitaria (Dig) [22] was found to be 4.
